Measured values taken from ChEMBL document CHEMBL3400013, “Synthesis and biological activity evaluation of hydrazone derivatives based on a Tröger's base skeleton” (Bioorg Med Chem, 2015).
Activity calls are given as the source filed them. No cut-off for these calls is given here.

What follows are compounds tested on Mycobacterium tuberculosis (assay: Antimicrobial activity against Mycobacterium bovis BCG up to 100 uM after 24 to 48 hrs by broth microdilution method). Conditions: variant bovis BCG.
Type: functional, organism-based

Structure (SMILES)	Activity
O=C(N/N=C/c1cc(O)ccc1O)c1ccc2c3c(ccc2c1)N1Cc2c(ccc4cc(C(=O)N/N=C/c5cc(O)ccc5O)ccc24)N(C3)C1	inactive
O=C(NN=C(c1ccccn1)c1ccccn1)c1ccc2c3c(ccc2c1)N1Cc2c(ccc4cc(C(=O)NN=C(c5ccccn5)c5ccccn5)ccc24)N(C3)C1	inactive
COc1ccc(O)c(/C=N/NC(=O)c2ccc3c4c(ccc3c2)N2Cc3c(ccc5cc(C(=O)N/N=C/c6cc(OC)ccc6O)ccc35)N(C4)C2)c1	inactive
O=C(N/N=C/c1cc(F)ccc1O)c1ccc2c3c(ccc2c1)N1Cc2c(ccc4cc(C(=O)N/N=C/c5cc(F)ccc5O)ccc24)N(C3)C1	inactive
O=C(N/N=C/c1cc([N+](=O)[O-])ccc1O)c1ccc2c3c(ccc2c1)N1Cc2c(ccc4cc(C(=O)N/N=C/c5cc([N+](=O)[O-])ccc5O)ccc24)N(C3)C1	inactive
O=C(N/N=C/c1ccccc1O)c1ccc2c3c(ccc2c1)N1Cc2c(ccc4cc(C(=O)N/N=C/c5ccccc5O)ccc24)N(C3)C1	inactive
COC(=O)c1ccc(O)c(/C=N/NC(=O)c2ccc3c4c(ccc3c2)N2Cc3c(ccc5cc(C(=O)N/N=C/c6cc(C(=O)OC)ccc6O)ccc35)N(C4)C2)c1	inactive
Cc1ccc(O)c(/C=N/NC(=O)c2ccc3c4c(ccc3c2)N2Cc3c(ccc5cc(C(=O)N/N=C/c6cc(C)ccc6O)ccc35)N(C4)C2)c1	inactive
O=C(N/N=C/c1cc(Cl)ccc1O)c1ccc2c3c(ccc2c1)N1Cc2c(ccc4cc(C(=O)N/N=C/c5cc(Cl)ccc5O)ccc24)N(C3)C1	inactive
COc1cccnc1/C=N/NC(=O)c1ccc2c3c(ccc2c1)N1Cc2c(ccc4cc(C(=O)N/N=C/c5ncccc5OC)ccc24)N(C3)C1	inactive
O=C(N/N=C/c1nccc2ccccc12)c1ccc2c3c(ccc2c1)N1Cc2c(ccc4cc(C(=O)N/N=C/c5nccc6ccccc56)ccc24)N(C3)C1	inactive
